Here are results for 1 compound from US8518965B2, “Compositions and methods for treating cancer” (Trustees of Dartmouth College, priority 2009, dated 2013).

Series [1] in a line: Solubility in solvents and buffers. It is filed as physicochemical. To be noted: for solubility: read-out: Solubility (mg/ml), 25° C. Here is the method: Characterization of D11B. The solubility of D11B in different solvents was analyzed (Table 1).
The solubility of D11B in various combinations of solvents was also analyzed. […] For the analysis of co-solvents, stock solutions were prepared by dissolving D11B in a corresponding solvent. Stock solutions of D11B in dimethylsulfoxide (DMSO) were prepared at 25° C., and stock solutions of D11B in PEG-400, CREMOPHOR® EL and Polysorbate 80 were prepared at 100° C. Injection solutions, in water (0.3 mg/ml), were prepared by dropwise addition of the stock solution to a required volume of vigorously stirred hot water (80° C.).
The solubility of D11B×2AH in DMSO, PEG-400, EtOH, and buffer was determined (Table 7).

Series [2] relates to HCT116 human colon cancer xenografts. As to the kind of experiment: In vivo efficacy, HCT116 xenografts in nude mice. Details: species or system nude mice (nu/nu genotype). The following applies: single i.p. injection. Here is the method: This in vivo anticancer efficacy study was performed on nude mice (nu/nu genotype) bearing HCT116 human colon cancer xenografts. These human tumors grew exponentially following implantation into the flanks of the mice and reached a diameter of 3 mm. Treatment was initiated at that time, with the first day of treatment designated as day 0 for all calculations and plots. […] Mice in the control group, bearing 3 mm diameter tumors, were treated with vehicle alone. After treatment, tumor sizes were measured by caliper every day. Daily measurement of the tumor diameters (d1, d2) in two orthogonal directions was used to calculate the tumor volume (tumor volume=π/6{(d1+d2)/2}^3) using the approximation that the tumors were spherical. The values of time (days) required to grow the tumor to the size of 1,000 cu. mm after various treatments and tumor growth delay percentage were calculated for evaluating the treatment effects. Survival times and tumor inhibitory effects on day 20 after treatment were also observed and recorded.

Like-named read-outs stand apart in the source and are kept apart here.

As for `c1ccc2c(Nc3ccc(Oc4ccc(Nc5c6ccccc6nc6ccccc56)cc4)cc3)c3ccccc3nc2c1` [Compound D11B], in series [1] (5% dextrose in water), the “Solubility in 5% dextrose in water” value is given as “negligible”. The solubility was roughly 0.01 mg/mL in series [1] (AcOH, 25 °C, organic solvent or mixture, AcOH); greater than 1.1 mg/mL in series [1] (AcOH-H2O (1-1), 25 °C, aqueous with cosolvent or surfactant or cyclodextrin, AcOH—H2O (1-1)); greater than 13 mg/mL in series [1] (AcOH-H2O (9-1), 25 °C, organic solvent or mixture, AcOH—H2O (9-1)); 0.12 mg/mL in series [1] (CHCl3, 25 °C, organic solvent or mixture, CHCl3); roughly 20 mg/mL in series [1] (DMF, 25 °C, organic solvent or mixture, DMF); roughly 100 mg/mL in series [1] (DMSO, 25 °C, organic solvent or mixture, DMSO). The solubility is roughly 1 mg/mL in series [1] (MeOH, 25 °C, organic solvent or mixture, MeOH); less than 0.1 mg/mL in series [1] (Na2HPO4-citric acid buffer, 25 °C, pH 4, aqueous buffer, Na2HPO4-citric acid buffer (pH = 4), first entry); less than 0.1 mg/mL in series [1] (Na2HPO4-citric acid buffer, 25 °C, pH 4, aqueous buffer, Na2HPO4-citric acid buffer (pH = 4), second entry); roughly 12 mg/mL in series [1] (PEG-400, 25 °C, organic solvent or mixture, PEG-400, heating to 100° C. was required). Further, in series [1] (H2O), the “Solubility (mg/ml), 25° C.” value is “negligible”. The Solubility in saline entry in series [1] (saline (0.9% NaCl in water)) is listed as “negligible”. Also, the Mean survival time in series [2] (control group 19.7 days) is 40.5 days. Also, in series [2] (time for growth up to the tumor volume of 1,000 cu. mm), the “Tumor growth delay percentage” value is listed as 131%. For the same compound, the Inhibition ratio in series [2] (tumor growth on day 20 after drug administration) amounted to 4.65.
